{
  "source": "patent US6360743B1",
  "about": "“System for dispensing pharmaceutical active compounds” (AB Astra, priority 1992, dated 2002)",
  "key": {"[1]": {"conditions": "generally regarded; cited from earlier work"}, "[2]": {"experiment": "Absolute systemic availability and lung deposition of inhaled budesonide (plasma LC-MS)", "assay_type": "in vivo, healthy subjects", "conditions": "for Cmax / Tmax: human, plasma, inhaled or intranasal, 1 mg, 1 mg inhaled; for absolute systemic availability (geometric mean): 1 mg as five inhalations of 200 micrograms, vs 0.5 mg intravenously; for amount deposited and absorbed in the lung (geometric mean, range): calculated assuming 13% availability of swallowed budesonide", "procedure": "In order to determine the absolute systemic availability and the amount of budesonide deposited and absorbed in the lung after inhalation via TURBUHALER and via an MDI, 24 healthy subjects were given budesonide 1 mg as five inhalations of 200 micrograms each, via TURBUHALER inhaler or via MDI, and 0.5 mg intravenously, on separate study days. Budesonide levels were determined in plasma by a LC-MS method. The amount of budesonide absorbed in the lung was calculated on the assumption of an availability of swallowed budesonide of 13%. Furthermore, absorption in the lung was calculated in 13 of the subjects after inhalation with concomitant oral dosing of charcoal to prevent absorption of budesonide from the gastrointestinal track. There was good conformity between the two modes of calculation."}},
  "data": [
    {"smiles": "CC(C)(C)NCC(O)c1ccc(O)c(CO)c1", "note": "(stereo not shown) [salbutamol]", "values": [
      {"measurement": "dose regarded as equipotent to 0.25 mg of terbutaline sulphate", "setting": "[1]", "result": 0.1, "unit": "mg"}
    ]},
    {"smiles": "CCCC1O[C@@H]2C[C@H]3[C@@H]4CCC5=CC(=O)C=C[C@]5(C)[C@H]4[C@@H](O)C[C@]3(C)[C@]2(C(=O)CO)O1", "note": "(stereo partly shown) [budesonide]", "values": [
      {"measurement": "lung deposition from TURBUHALER relative to MDI", "setting": "[2]; TURBUHALER versus MDI", "result": "twice that from an MDI"},
      {"measurement": "Cmax", "setting": "[2]; via MDI", "result": 2.3, "unit": "nM"},
      {"measurement": "Tmax", "setting": "[2]; via MDI", "result": 30, "unit": "min"},
      {"measurement": "Cmax", "setting": "[2]; via TURBUHALER", "result": 3.6, "unit": "nM"},
      {"measurement": "Tmax", "setting": "[2]; via TURBUHALER", "result": 18, "unit": "min"},
      {"measurement": "absolute systemic availability (geometric mean)", "setting": "[2]; via MDI", "result": 28, "unit": "%"},
      {"measurement": "amount deposited and absorbed in the lung (geometric mean, range)", "setting": "[2]; via MDI", "result": "15% (3%-47%)"},
      {"measurement": "absolute systemic availability (geometric mean)", "setting": "[2]; via TURBUHALER", "result": 38, "unit": "%"},
      {"measurement": "amount deposited and absorbed in the lung (geometric mean, range)", "setting": "[2]; via TURBUHALER", "result": "32% (16%-59%)"}
    ]}
  ]
}
